The subject of data set [1] is MCF-10A. On the set-up: method as in PMID 33567789. The following applies: MTT; data already published; ref [25]; read-out: IC50 of Mean ± SD Antiproliferative Activity MCF-10A; cited from earlier work.
Data set [2] deals with MDA-MB-231. Details: method as in PMID 33567789. Conditions: MTT; data already published; ref [25]; read-out: IC50 of Mean ± SD Antiproliferative Activity MDA-MB-231; cited from earlier work.
In data set [3] the test system is MCF-7. On the set-up: method as in PMID 33567789. Conditions: MTT; data already published; ref [25]; read-out: IC50 of Mean ± SD Antiproliferative Activity MCF-7; cited from earlier work.
Data set [4] has as its system MDA-MB-231. The experiment in a line: Antiproliferative activity, MTT dye-reduction assay, MDA-MB-231. The data set is classed as cell-based, human. Conditions: for SI ± SD MDA-MB-231 (selective index): SI = IC50 of MCF-10A/IC50 of MDA-MB-231. On the procedure: (§1) The compounds were studied for antiproliferative activity by MTT dye-reduction assay. Cell cultures from different cell lines (MCF-10A, MCF-7 and MDA-MB-231) were incubated with the test substances at a concentration of 15 to 2000 μM for 72 h at 37 °C, 5% CO2 and 95% humidity. The antiproliferative activity expressed in % relative to the negative control was determined.
(§2) The antiproliferative activity testing was performed on cell cultures from several human cell lines using the standard MTT dye-reduction assay, described by Mosmann. The assay is based on the metabolism of the tetrazolium salt 3-(4,5-dimethylthiazol-2-yl)-2,5-diphenyltetrazolium bromide (MTT) to insoluble formazan by mitochondrial reductases. The formazan concentration can be determined spectrophotometrically. The measured absorption is an indicator of cell viability and metabolic activity. The following cell lines were used in the experiments: mammary gland type A adenocarcinoma ER+, PR+ and HER2− (MCF-7); triple-negative breast cancer ER−, PR−, and HER2− (MDA-MB-231); and breast, nontumorigenic epithelial cell line (MCF-10A). The cell lines were routinely grown as monolayers in 75 cm^2 tissue culture flasks under standard conditions (described above). Cells were plated at a density of 1 × 10^3 cells in 100 µL in each well of 96-well flat-bottomed microplates and allowed to adhere for 24 h before treatment with test compounds. A concentration range from 15 to 2000 μM was applied for 72 h. Formazan absorption was registered using a microplate reader at λ = 540 nm. Antiproliferative activities were expressed as IC50 values (concentrations required for 50% inhibition of cell growth), calculated using nonlinear regression analysis (GraphPad Prism 4 Software, https://www.graphpad.com).
Background: Tetrazolium dyes change colour on reduction, which living cells bring about.

Data set [5] concerns MCF-7. The experiment in a line: Antiproliferative activity, MTT dye-reduction assay, MCF-7. The data set is classed as cell-based, human. Conditions: for SI ± SD MCF-7 (selective index): SI = IC50 of MCF-10A/IC50 of MCF-7. On the procedure:
as §1, §2

A short description of data set [6]: Hydrolytic stability in model buffer solutions by HPLC. The following applies: 72 h, model buffer solutions pH 2, pH 7.4 and pH 9, HPLC. The data set is classed as physicochemical. Here is the method:
HPLC profiles of all target compounds at three different pH values that mimic human pH in the stomach (pH 2), blood plasma (pH 7.4) and small intestine (pH 9) are presented in the Supplementary Materials.
The designed changes in the structures, i.e., C-terminal amide modification, as well as the introduction of a β-Ala moiety, lead to complete stability of the target compounds during the test period in all model conditions.
The obtained solution was made up to 1000.0 mL with dH2O; • (ii) Buffer with pH 7.4–2.38 g Na2HPO4, 0.19 g KH2PO4 and 8.0 g NaCl was dissolved in dH2O. The obtained solution was made up to 1000.0 mL with dH2O. • (iii) Buffer with pH 9.0–1000.0 mL of solution I was mixed with 420.0 mL of solution II. Solution I: 6.18 g of H3BO3 was dissolved in 0.1 mol/L KCl, and it was made up to 1000.0 mL with the same solvent; Solution II: 0.1 mol/L NaOH.

The subject of data set [7] is MCF-10A. The experiment in a line: Antiproliferative activity, MTT dye-reduction assay, MCF-10A. The data set is classed as cell-based, human. Conditions: 72 h, read-out: IC50 of Mean ± SD Antiproliferative Activity MCF-10A. Here is the method: as §1
MCF-10A is a reliable model for normal human mammary epithelial cells, which serves as a control in experiments to determine antitumor activity.
as §2

The test system of data set [8] is Bacillus subtilis 3562. The data set is described as follows: Antimicrobial assay, agar/disc diffusion, B. subtilis. The data set is classed as cell-based. Conditions: 6 μL of 20 μM solution on 6 mm paper disc, 24 h. On the procedure:
(§3) The microbial cultures were placed in a thin layer on sterile plates. On sterile paper discs, 6 μL of 20 μM solutions in distilled water of the test compounds was placed. Further, the discs were incorporated into a thin layer of sterile plates (Figure 3). The studies were triplicates for each concentration, and the diameters of the obtained zones represent the average value of the three results.
(§4) All newly synthesized derivatives of (KLAKLAK)2-NH2 at concentrations of 20 μM in distilled water were tested against model strains E. coli NBIMCC K12 407, B. subtilis NBIMCC 3562 and C. albicans NBIMCC 74. The strains were obtained from the National Bank for Industrial Microorganisms and Cell Cultures (NBIMCC, Sofia, Bulgaria). Exponential cultures (1 × 10^7 cfu/mL) of strains E. coli K12 407 were obtained in Luria-Bertani (LB, HiMedia, Mumbai, India); for B. subtilis 3562, an initial bacterial concentration of 1 × 10^6 cfu/mL was obtained in nutrient broth (NB, HiMedia, Mumbai, India); and for C. albicans 74, and initial bacterial concentration of 1 × 10^5 cfu/mL was obtained in yeast mold (YM) medium. Cultivation was performed in an ES-20/60 incubator shaker (Biosan, Riga, Latvia) at 30 °C for B. subtilis 3562 and at 37 °C for E. coli K12 407 and C. albicans 74 with shaking at 220 rpm for 24 h. The agar diffusion method was applied to determine the antimicrobial activity of the tested compounds. LB/NB/YM plates were inoculated by spreading 100 μL of each microbial culture on their surface, followed by incubation at 30/37 °C for penetration of suspension into the agar. After 30 min, sterile paper discs (6 mm in diameter) were soaked with the tested compounds in amounts of 6 µL and placed on the surface of agar Petri dishes. The plates were incubated at 30/37 °C for 24 h. Antimicrobial activity was assessed by measuring the diameter of the obtained inhibition zones. Sterile paper discs soaked with water were used as blank controls. Mean values were calculated by performing the experiments in triplicates.
(A growth-free zone around the sample is the usual read-out of agar diffusion tests.)

The test system of data set [9] is Candida albicans 74. The data set is described as follows: Antimicrobial assay, agar/disc diffusion, C. albicans. The data set is classed as cell-based. The following applies: 6 μL of 20 μM solution on 6 mm paper disc, 24 h. Here is the method: as §3, §4
Data set [10] can be described thus: In vitro cytotoxicity, 3T3 NRU test. The data set is classed as cell-based. Conditions: mouse, BALB/3T3 clone A31 mouse embryo cells, 24 h incubation, 15 to 2000 μM, read-out: IC50 of Mean ± SD Cytotoxicity BALB 3T3 (CC50). On the procedure:
The newly synthesized compounds were studied for cytotoxicity assessment by an in vitro 3T3 NRU test. The cells were incubated with the test substances at a concentration of 15 to 2000 μM for 24 h at 37 °C, 5% CO2 and 95% humidity. The cytotoxicity expressed in % relative to the negative control was determined.
The cytotoxicity testing was performed as described by Borenfreund et al. and the latest modification of the validated BALB/3T3 clone A31 Neutral Red Uptake Assay (3T3 NRU test). BALB/3T3 clone A31 mouse embryo cells were grown as a monolayer in 75 cm^2 tissue culture flasks in high-glucose DMEM (4.5 g/L), supplemented with 10% FBS and antibiotics. Cultures were maintained at 37.5 °C in a humidified atmosphere under 5% CO2. Cells were plated at a density of 1 × 10^4 cells in 100 μL culture medium in each well of 96-well flat-bottomed microplates and allowed to adhere for 24 h before treatment with test compounds, dissolved in DMSO and further diluted in culture medium. A wide concentration range was applied (from 15 to 2000 μM), and the cells were incubated for an additional 24 h. After treatment with Neutral Red medium, washing and application of the ethanol/acetic acid solution (NR Desorb), the absorption was measured on a TECAN microplate reader at wavelength 540 nm. The data obtained are on average from three independent experiments ± SD, n = 6.

Data set [11] deals with Escherichia coli K12 407. The experiment in a line: Antimicrobial assay, agar/disc diffusion, E. coli. Conditions: 6 μL of 20 μM solution on 6 mm paper disc, 24 h. The data set is classed as cell-based. Here is the method: as §3, §4

“And” between values parts separate entries of the source, which are not always exact repeats. Identical values can stand only once. Like-named read-outs stand apart in the source and are kept apart here. No end group written: not given here.

What is called IC50 is the concentration at which inhibition is half-maximal. One may read the melting point as the temperature of the solid-liquid transition. The CC50 is the concentration at which the toxic effect on the cells reaches its halfway point.

As to KLAKLAK-NH2 [Si6], the IC50 in data set [1], in [2] and in data set [3] was over 2000 µM each time.

For `CC(C)C[C@H](NC(=O)[C@H](CCCCN)NC(=O)[C@H](C)NC(=O)[C@H](CC(C)C)NC(=O)[C@H](CCCCN)NC(=O)[C@H](CCCCN)NC(=O)[C@H](C)NC(=O)[C@H](CC(C)C)NC(=O)[C@H](CCCCN)NC(=O)[C@H](C)NC(=O)[C@H](CC(C)C)NC(=O)[C@@H](N)CCCCN)C(=O)N[C@@H](C)C(=O)N[C@@H](CCCCN)C(N)=O` [Si1, (KLAKLAK)2-NH2], the IC50 is 154 ± 6.53 µM in data set [1], 746 ± 7.6 µM in data set [2] and 124 ± 8.12 µM in data set [3]. Besides, in data set [4], the “SI ± SD MDA-MB-231 (selective index)” value turned out to be 0.206 ± 0.007. Further, in [5], the “SI ± SD MCF-7 (selective index)” value is on record as 1.243 ± 0.052.

Regarding `CC(C)C[C@H](NC(=O)[C@H](CCCCN)NC(=O)/C=C/c1ccc(O)c(O)c1)C(=O)N[C@@H](C)C(=O)N[C@@H](CCCCN)C(=O)N[C@@H](CC(C)C)C(=O)N[C@@H](C)C(=O)N[C@@H](CCCCN)C(=O)N[C@@H](CCCCN)C(=O)N[C@@H](CC(C)C)C(=O)N[C@@H](C)C(=O)N[C@@H](CCCCN)C(=O)N[C@@H](CC(C)C)C(=O)N[C@@H](C)C(=O)N[C@@H](CCCCN)C(N)=O` [Si10, Caf-(KLAKLAK)2-NH2], the melting point was 122 to 124 °C. Moreover, the Hydrolytic stability result in data set [6] is recorded as “complete hydrolytic stability”. Also, in [7], the 50% inhibitory concentration (IC50) was found to be 72.5 ± 4.69 µM. For the same molecule, the IC50 in [4] (MTT, 72 h, read-out: IC50 of Mean ± SD Antiproliferative Activity MDA-MB-231) was found to be 177 ± 2.79 µM. For the same molecule, in data set [4], the “SI ± SD MDA-MB-231 (selective index)” value turned out to be 0.411 ± 0.023. In data set [8], the “Inhibition zones size, Bacillus subtilis 3562” value was determined as 12.66 ± 0.31 mm. In addition, the “Inhibition zones size, Candida albicans 74” value in data set [9] was 17.66 ± 0.41 mm. Besides, the IC50 in data set [5] (MTT, 72 h, read-out: IC50 of Mean ± SD Antiproliferative Activity MCF-7) was determined as 50.5 ± 1.66 µM. For the same molecule, in [5], the “SI ± SD MCF-7 (selective index)” value was 1.4 ± 0.072 and 1.44. Besides, in [5] (listed as Si 10), the “SI ± SD MCF-7 (selective index)” value is listed as 1.436 ± 0.072. In addition, the CC50 at 24 h in data set [10] amounted to 173 ± 8.51 µM. In addition, in data set [11], the “Inhibition zones size, Escherichia coli K12 407” value is 13.33 ± 0.33 mm.
